Assay results from patent US12338249B2, “Crystalline forms of N-(4-(1-(2,6-difluorobenzyl)-5-((dimethylamino)methyl)-3-(6-methoxy-3-pyridazinyl)-2,4-dioxo-1,2,3,4-tetrahydrothieno[2,3-d]pyrimidin-6-yl)phenyl)-N′-methoxyurea” (Sumitomo Pharma Switzerland GmbH, priority 2019, dated 2025).

Assay: Thermodynamic aqueous solubility of crystalline Forms I and II of Compound 1 (HPLC)
Assay type: physicochemical
Description: Substance contents in test solutions were measured using HPLC Prominence/PDA detector (Shimadzu Corporation). The analytical conditions and calculation formula were as follows: […]
The thermodynamic solubility of Forms I and II was determined at pH 1.2 and pH 6.8 and in 20 mM GCDC, pH 6.8 at 37° C. with an equilibrium period for 2, 6 and 24 hours.

[1] = 20 mM GCDC (sodium glycochenodeoxycholate), pH 6.8, 37° C., 2 hrs equilibrium, average n=3
[2] = 20 mM GCDC (sodium glycochenodeoxycholate), pH 6.8, 37° C., 6 hrs equilibrium, average n=3
[3] = 20 mM GCDC (sodium glycochenodeoxycholate), pH 6.8, 37° C., 24 hrs equilibrium, average n=3
[4] = pH 6.8, 37° C., 2 hrs equilibrium, average n=3
[5] = pH 6.8, 37° C., 6 hrs equilibrium, average n=3
[6] = pH 6.8, 37° C., 24 hrs equilibrium, average n=3

SMILES	Aqueous Solubility [1]	Aqueous Solubility [2]	Aqueous Solubility [3]	Solubility compared between Form I and Form II (in words) (20 mM GCDC, pH 6.8, 37° C.)	Aqueous Solubility (pH 1.2, 37° C., 2 hrs equilibrium, average n=3)	Aqueous Solubility (pH 1.2, 37° C., 6 hrs equilibrium, average n=3)	Aqueous Solubility (pH 1.2, 37° C., 24 hrs equilibrium, average n=3)	Solubility compared between Form I and Form II (in words) (pH 6.8, 37° C.)	Aqueous Solubility [4]	Aqueous Solubility [5]	Aqueous Solubility [6]	Aqueous solubility compared between Form II and Form I (in words) (37° C., overall comparison of Tables 3 and 4)	solubility at 2 h (aqueous solution, pH 1.2, 37 °C, pH 1.2, simulated gastric fluid, thermodynamic from solid, 2 hrs equilibrium, average n=3)	solubility at 6 h (aqueous solution, pH 1.2, 37 °C, pH 1.2, simulated gastric fluid, thermodynamic from solid, 6 hrs equilibrium, average n=3)	solubility at 24 h (aqueous solution, pH 1.2, 37 °C, pH 1.2, simulated gastric fluid, thermodynamic from solid, 24 hrs equilibrium, average n=3)	Solubility compared between Form I and Form II (in words) (pH 6.8, 37° C., listed as Form II of Compound 1)
CONC(=O)Nc1ccc(-c2sc3c(c2CN(C)C)c(=O)n(-c2ccc(OC)nn2)c(=O)n3Cc2c(F)cccc2F)cc1 [Form I, N-(4-(1-(2,6-difluorobenzyl)-5-((dimethylamino)methyl)-3-(6-methoxy-3-pyridazinyl)-2,4-dioxo-1,2,3,4-tetrahydrothieno[2,3-d]pyrimidin-6-yl)phenyl)-N′-methoxyurea]	960 µg/mL	980 µg/mL	970 µg/mL	lower solubility than Form II	>10000 µg/mL	>10000 µg/mL	>10000 µg/mL	lower solubility than Form II	80 µg/mL	80 µg/mL	70 µg/mL					
CONC(=O)Nc1ccc(-c2sc3c(c2CN(C)C)c(=O)n(-c2ccc(OC)nn2)c(=O)n3Cc2c(F)cccc2F)cc1 [Form II, N-(4-(1-(2,6-difluorobenzyl)-5-((dimethylamino)methyl)-3-(6-methoxy-3-pyridazinyl)-2,4-dioxo-1,2,3,4-tetrahydrothieno[2,3-d]pyrimidin-6-yl)phenyl)-N′-methoxyurea]	2750 µg/mL	3300 µg/mL	4120 µg/mL						520 µg/mL	510 µg/mL	520 µg/mL	more soluble than Form I of Compound 1	> 10000 µg/mL	> 10000 µg/mL	> 10000 µg/mL	higher aqueous solubility
